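These data come from cells grown in 96-well plates and exposed to compound for 48 hours at five concentrations. GI50 marks 50% less growth. Definition used: TGI = concentration required for complete inhibition of growth.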
Tests used:
Test in all cases: NCI tumour cell line growth inhibition, 48 h
A498 renal = system: A498 renal
ACHN renal = system: ACHN renal
CAKI-1 renal = system: CAKI-1 renal
CCRF-CEM leukemia = system: CCRF-CEM leukemia
DU-145 prostate = system: DU-145 prostate
EKVX NSCLC = system: EKVX NSCLC
HL-60(TB) leukemia = system: HL-60(TB) leukemia
HOP-62 NSCLC = system: HOP-62 NSCLC
K-562 leukemia = system: K-562 leukemia
MOLT-4 leukemia = system: MOLT-4 leukemia
NCI-H226 lung = system: NCI-H226 lung
NCI/ADR-RES ovarian = system: NCI/ADR-RES ovarian
OVCAR-4 ovarian = system: OVCAR-4 ovarian
PC-3 prostate = system: PC-3 prostate
RXF 393 renal = system: RXF 393 renal
COLO 205 colon = system: COLO 205 colon
HT29 colon = system: HT29 colon
MCF7 breast = system: MCF7 breast
RPMI-8226 leukemia = system: RPMI-8226 leukemia
786-0 renal = system: 786-0 renal
A549 NSCLC = system: A549 NSCLC
BT-549 breast = system: BT-549 breast
HCC-2998 colon = system: HCC-2998 colon
HCT-116 colon = system: HCT-116 colon
HCT-15 colon = system: HCT-15 colon
IGROV1 ovarian = system: IGROV1 ovarian
KM12 colon = system: KM12 colon
LOX IMVI melanoma = system: LOX IMVI melanoma
M14 melanoma = system: M14 melanoma
MALME-3M melanoma = system: MALME-3M melanoma
MDA-MB-231 breast = system: MDA-MB-231 breast
MDA-MB-435 = system: MDA-MB-435
NCI-H23 lung = system: NCI-H23 lung
NCI-H460 lung = system: NCI-H460 lung
OVCAR-3 ovarian = system: OVCAR-3 ovarian
OVCAR-5 ovarian = system: OVCAR-5 ovarian
OVCAR-8 ovarian = system: OVCAR-8 ovarian
SF-268 CNS = system: SF-268 CNS
SF-295 CNS = system: SF-295 CNS
SF-539 CNS = system: SF-539 CNS
SK-MEL-2 melanoma = system: SK-MEL-2 melanoma
SK-MEL-28 melanoma = system: SK-MEL-28 melanoma
SK-MEL-5 melanoma = system: SK-MEL-5 melanoma
SK-OV-3 ovarian = system: SK-OV-3 ovarian
SNB-19 CNS = system: SNB-19 CNS
SR leukemia = system: SR leukemia
SW-620 colon = system: SW-620 colon
T-47D breast = system: T-47D breast
TK-10 renal = system: TK-10 renal
U251 CNS = system: U251 CNS
UACC-257 melanoma = system: UACC-257 melanoma
UACC-62 melanoma = system: UACC-62 melanoma
UO-31 renal = system: UO-31 renal
HOP-92 NSCLC = system: HOP-92 NSCLC
HS 578T breast = system: HS 578T breast
NCI-H522 lung = system: NCI-H522 lung
SN12C renal = system: SN12C renal
SNB-75 CNS = system: SNB-75 CNS

SMILES: CN(C)c1ccc(/C=C/C=c2/c3ccccc3n3c2cc(-c2ccccc2)[n+]3C)cc1
- TGI (A498 renal): 1230 nM
- TGI (ACHN renal): 1630 nM
- TGI (CAKI-1 renal): 1170 nM
- TGI (CCRF-CEM leukemia): > 100000 nM
- TGI (DU-145 prostate): 1030 nM
- TGI (EKVX NSCLC): 1570 nM
- TGI (HL-60(TB) leukemia): 509 nM
- TGI (HOP-62 NSCLC): 1190 nM
- TGI (K-562 leukemia): > 100000 nM
- TGI (MOLT-4 leukemia): 724 nM
- TGI (NCI-H226 lung): 1820 nM
- TGI (NCI/ADR-RES ovarian): > 100000 nM
- TGI (OVCAR-4 ovarian): 2110 nM
- TGI (PC-3 prostate): 1170 nM
- TGI (RXF 393 renal): 1620 nM

SMILES: Cc1cc(N)c2ccccc2[n+]1CCCCCCCCCCNc1cc(C)[n+](CCCCCCCCCC[n+]2c(C)cc(N)c3ccccc32)c2ccccc12
- TGI (CAKI-1 renal): > 100000 nM
- TGI (COLO 205 colon): > 100000 nM
- TGI (EKVX NSCLC): 33700 nM
- TGI (HT29 colon): 29000 nM
- TGI (MCF7 breast): > 100000 nM
- TGI (RPMI-8226 leukemia): 1520 nM

SMILES: CC1CCN(C(C)C)P(=S)(Cc2ccccc2)O1 (configuration not stated)
- TGI (786-0 renal): > 100000 nM
- TGI (A549 NSCLC): > 100000 nM
- TGI (ACHN renal): > 100000 nM
- TGI (BT-549 breast): > 100000 nM
- TGI (CAKI-1 renal): > 100000 nM
- TGI (COLO 205 colon): > 100000 nM
- TGI (DU-145 prostate): > 100000 nM
- TGI (EKVX NSCLC): > 100000 nM
- TGI (HCC-2998 colon): > 100000 nM
- TGI (HCT-116 colon): > 100000 nM
- TGI (HCT-15 colon): > 100000 nM
- TGI (HOP-62 NSCLC): > 100000 nM
- TGI (HT29 colon): > 100000 nM
- TGI (IGROV1 ovarian): > 100000 nM
- TGI (K-562 leukemia): > 100000 nM
- TGI (KM12 colon): > 100000 nM
- TGI (LOX IMVI melanoma): > 100000 nM
- TGI (M14 melanoma): > 100000 nM
- TGI (MALME-3M melanoma): > 100000 nM
- TGI (MCF7 breast): > 100000 nM
- TGI (MDA-MB-231 breast): > 100000 nM
- TGI (MDA-MB-435): > 100000 nM
- TGI (MOLT-4 leukemia): > 100000 nM
- TGI (NCI-H226 lung): > 100000 nM
- TGI (NCI-H23 lung): > 100000 nM
- TGI (NCI-H460 lung): > 100000 nM
- TGI (NCI/ADR-RES ovarian): > 100000 nM
- TGI (OVCAR-3 ovarian): > 100000 nM
- TGI (OVCAR-4 ovarian): > 100000 nM
- TGI (OVCAR-5 ovarian): > 100000 nM
- TGI (OVCAR-8 ovarian): > 100000 nM
- TGI (PC-3 prostate): > 100000 nM
- TGI (RPMI-8226 leukemia): > 100000 nM
- TGI (SF-268 CNS): > 100000 nM
- TGI (SF-295 CNS): > 100000 nM
- TGI (SF-539 CNS): > 100000 nM
- TGI (SK-MEL-2 melanoma): > 100000 nM
- TGI (SK-MEL-28 melanoma): 40000 nM
- TGI (SK-MEL-5 melanoma): > 100000 nM
- TGI (SK-OV-3 ovarian): > 100000 nM
- TGI (SNB-19 CNS): > 100000 nM
- TGI (SR leukemia): > 100000 nM
- TGI (SW-620 colon): > 100000 nM
- TGI (T-47D breast): 56800 nM
- TGI (TK-10 renal): > 100000 nM
- TGI (U251 CNS): > 100000 nM
- TGI (UACC-257 melanoma): > 100000 nM
- TGI (UACC-62 melanoma): > 100000 nM
- TGI (UO-31 renal): > 100000 nM

SMILES: CC1=C([Te]c2ccccc2)C(=O)c2ccccc2C1=O
- GI50 (786-0 renal): 2010 nM
- TGI (786-0 renal): 3960 nM
- GI50 (A498 renal): 239 nM
- TGI (A498 renal): 977 nM
- GI50 (A549 NSCLC): 298 nM
- TGI (A549 NSCLC): 1230 nM
- GI50 (ACHN renal): 454 nM
- TGI (ACHN renal): 1610 nM
- GI50 (BT-549 breast): 232 nM
- TGI (BT-549 breast): 842 nM
- GI50 (CAKI-1 renal): 974 nM
- TGI (CAKI-1 renal): 3200 nM
- GI50 (CCRF-CEM leukemia): 312 nM
- TGI (CCRF-CEM leukemia): 3300 nM
- GI50 (COLO 205 colon): 457 nM
- TGI (COLO 205 colon): 1450 nM
- GI50 (DU-145 prostate): 424 nM
- TGI (DU-145 prostate): 1580 nM
- GI50 (EKVX NSCLC): 207 nM
- TGI (EKVX NSCLC): 760 nM
- GI50 (HCC-2998 colon): 483 nM
- TGI (HCC-2998 colon): 1550 nM
- GI50 (HCT-116 colon): 284 nM
- TGI (HCT-116 colon): 901 nM
- GI50 (HCT-15 colon): 346 nM
- TGI (HCT-15 colon): 1560 nM
- GI50 (HL-60(TB) leukemia): 326 nM
- TGI (HL-60(TB) leukemia): 1540 nM
- GI50 (HOP-62 NSCLC): 266 nM
- TGI (HOP-62 NSCLC): 762 nM
- GI50 (HOP-92 NSCLC): 315 nM
- TGI (HOP-92 NSCLC): 1390 nM
- GI50 (HS 578T breast): 303 nM
- TGI (HS 578T breast): 2460 nM
- GI50 (HT29 colon): 344 nM
- TGI (HT29 colon): 1360 nM
- GI50 (IGROV1 ovarian): 500 nM
- TGI (IGROV1 ovarian): 1820 nM
- GI50 (K-562 leukemia): 1070 nM
- TGI (K-562 leukemia): 3400 nM
- GI50 (KM12 colon): 337 nM
- TGI (KM12 colon): 1210 nM
- GI50 (LOX IMVI melanoma): 311 nM
- TGI (LOX IMVI melanoma): 1490 nM
- GI50 (M14 melanoma): 424 nM
- TGI (M14 melanoma): 1760 nM
- GI50 (MALME-3M melanoma): 1790 nM
- TGI (MALME-3M melanoma): 3560 nM
- GI50 (MCF7 breast): 249 nM
- TGI (MCF7 breast): 943 nM
- GI50 (MDA-MB-231 breast): 227 nM
- TGI (MDA-MB-231 breast): 573 nM
- GI50 (MDA-MB-435): 1800 nM
- TGI (MDA-MB-435): 4020 nM
- GI50 (MOLT-4 leukemia): 287 nM
- TGI (MOLT-4 leukemia): 1300 nM
- GI50 (NCI-H23 lung): 298 nM
- TGI (NCI-H23 lung): 1050 nM
- GI50 (NCI-H460 lung): 177 nM
- TGI (NCI-H460 lung): 391 nM
- GI50 (NCI-H522 lung): 909 nM
- TGI (NCI-H522 lung): 4240 nM
- GI50 (NCI/ADR-RES ovarian): 426 nM
- TGI (NCI/ADR-RES ovarian): 2630 nM
- GI50 (OVCAR-3 ovarian): 1040 nM
- TGI (OVCAR-3 ovarian): 2230 nM
- GI50 (OVCAR-4 ovarian): 1630 nM
- TGI (OVCAR-4 ovarian): 3530 nM
- GI50 (OVCAR-5 ovarian): 283 nM
- TGI (OVCAR-5 ovarian): 860 nM
- GI50 (OVCAR-8 ovarian): 374 nM
- TGI (OVCAR-8 ovarian): 4350 nM
- GI50 (PC-3 prostate): 297 nM
- TGI (PC-3 prostate): 2030 nM
- GI50 (RPMI-8226 leukemia): 275 nM
- TGI (RPMI-8226 leukemia): 1310 nM
- GI50 (RXF 393 renal): 1140 nM
- TGI (RXF 393 renal): 4630 nM
- GI50 (SF-268 CNS): 383 nM
- TGI (SF-268 CNS): 1640 nM
- GI50 (SF-295 CNS): 240 nM
- TGI (SF-295 CNS): 697 nM
- GI50 (SF-539 CNS): 146 nM
- TGI (SF-539 CNS): 1030 nM
- GI50 (SK-MEL-2 melanoma): 2370 nM
- TGI (SK-MEL-2 melanoma): 5580 nM
- GI50 (SK-MEL-28 melanoma): 1250 nM
- TGI (SK-MEL-28 melanoma): 3110 nM
- GI50 (SK-MEL-5 melanoma): 799 nM
- TGI (SK-MEL-5 melanoma): 2030 nM
- GI50 (SK-OV-3 ovarian): 335 nM
- TGI (SK-OV-3 ovarian): 1280 nM
- GI50 (SN12C renal): 311 nM
- TGI (SN12C renal): 1470 nM
- GI50 (SNB-19 CNS): 551 nM
- TGI (SNB-19 CNS): 2560 nM
- GI50 (SNB-75 CNS): 207 nM
- TGI (SNB-75 CNS): 898 nM
- GI50 (SW-620 colon): 475 nM
- TGI (SW-620 colon): 1740 nM
- GI50 (T-47D breast): 488 nM
- TGI (T-47D breast): 2780 nM
- GI50 (TK-10 renal): 1710 nM
- TGI (TK-10 renal): 4050 nM
- GI50 (U251 CNS): 331 nM
- TGI (U251 CNS): 1560 nM
- GI50 (UACC-257 melanoma): 2230 nM
- TGI (UACC-257 melanoma): 5920 nM
- GI50 (UACC-62 melanoma): 1430 nM
- TGI (UACC-62 melanoma): 3800 nM
- GI50 (UO-31 renal): 246 nM
- TGI (UO-31 renal): 1120 nM
